{"source": "patent US12569452B2", "about": "“Ophthalmic compositions comprising F6H8” (NOVALIQ GMBH, priority 2017, dated 2026)", "experiment": "Ocular tissue distribution after single topical ocular dose of 14C-F6H8, liquid scintillation counting", "type": "in vivo, Dutch Belted (pigmented) female rabbits", "details": "for Mean concentration of radioactivity, Conjunctiva (bulbar) / Mean concentration of radioactivity, Conjunctiva (palpebral) / Mean concentration of radioactivity, Cornea / Mean concentration of radioactivity, Lacrimal gland (accessory) / Mean concentration of radioactivity, Lacrimal gland (main) / Mean concentration of radioactivity, Meibomian glands / Mean concentration of radioactivity, Sclera (anterior) / Mean concentration of radioactivity, Tears: single topical ocular dose", "description": "The study is conducted to assess the ocular tissue distribution after topical ocular administration of ^14C-1-Perfluorohexyloctane (F6H8, NovaTears®) to Dutch Belted (pigmented) female rabbits.\nOn the first day of dosing, 5.474 mL of ^14C—F6H8 is combined with 9.526 mL of F6H8. The dose formulation is magnetically stirred and appears to be a colorless solution. The dose formulation is separated into vials to provide one vial per day for dose administration and it is stored at approximately −20° C. One vial per day is thawed prior to dose administration. In between dose administrations, the vial is capped and stored at approximately 5° C. when not in use.\nAnimals are not fasted prior to dose administration. All animals receive single 35 μL-drops of the dose formulation in each eye, with the right eye dosed first. All collection times are based on the time of dosing of the second (left) eye for the last dose, as applicable.\nAfter the dose is administered, the eye is allowed to close naturally. Each animal is then restrained for approximately 1 minute to prevent rubbing of the eyes.\nTears and Ocular Tissue Collection: Tears are collected from two animals per group per time point at 0.25, 0.5, 1, 2, 4, 8, and 24 hours post-dose following the single dose or the last dose of the multiple dose scheme. Tears are collected using Tear Flo Test (TFT) strips that were dye free. One strip of paper is used for each eye for each time point. Following collection, the tube containing the strip is placed on dry ice or stored at approximately −70° C. until analysed.\nAt the time of sacrifice, both eyes are enucleated and ocular tissues including Aqueous humour, Conjunctiva (bulbar), Conjunctiva (palpebral), Lacrimal gland (accessory), Lacrimal gland (main), Meibomian glands (tarsal plate), Choroid-Retinal pigmented epithelium (Choroid-RPE), Cornea, Iris-ciliary body (ICB), Retina, Sclera (anterior), Sclera (posterior), Vitreous humour are collected.\nRadioanalysis: All samples are analyzed for radioactivity in a Model 2900TR liquid scintillation counter (Packard Instrument Company) for at least 5 minutes or 100,000 counts, utilizing Ultima Gold XR or Hionic Fluor scintillation cocktails (Perkin Elmer). Each sample is homogenized before radioanalysis, unless the entire sample is used for analysis. All samples are analyzed in duplicate if sample size allows.\nFor Conjunctiva (bulbar and palpebral), Cornea, Lacrimal gland (main), Meibomian glands, Retina, and Sclera (anterior and posterior), each sample is digested in 2M sodium hydroxide in ethanol (80:20, v:v) and maintained at room temperature or in an oven set no higher than 30° C. until dissolved. Scintillation cocktail is added, and the samples are shaken and analyzed directly by LSC.\nFor Lacrimal gland (accessory), each sample is digested in 2M sodium hydroxide in ethanol (80:20, v:v) and maintained at room temperature or in an oven set no higher than 30° C. until dissolved. The sample is homogenized by mixing and duplicate weighed aliquots are analyzed directly by LSC.\nFor Tears, at least 10 mL of Ultima Gold XR scintillation cocktail is added, and the samples are shaken and analyzed by LSC.\nSingle topical ocular administration, radioanalysis of ocular tissues: The rabbits received a single topical ocular administration in both eyes. The target dose level is 45.6 mg/eye (25 μCi/eye). Following the single topical ocular dose of 35 μl of ^14C—F6H8, two animals per time point are sacrificed at 0.25, 0.5, 1, 2, 4, 8, and 24 hours post-dose in a sparse sampling profile. Ocular tissues (including tears collected prior to sacrifice) are collected from all animals at sacrifice.", "key": {"[1]": {"details": "single dose, between 0.25 and 4 hours post-dose"}}}
{"substance": "^14C-1-Perfluorohexyloctane [^14C-F6H8]", "values": [{"measurement": "Radioactivity in the iris-ciliary body and choroid-RPE", "setting": "single dose", "value": "No radioactivity is detected"}, {"measurement": "Radioactivity in the vitreous humour and retina", "setting": "single dose", "value": "Low levels"}, {"measurement": "Highest mean concentration, Meibomian glands", "setting": "[1]", "value": "294000 ng equivalents ^14C—F6H8/g"}, {"measurement": "Highest mean concentration, accessory lacrimal gland", "setting": "[1]", "value": "4280 ng equivalents ^14C—F6H8/g"}, {"measurement": "Highest mean concentration, anterior sclera", "setting": "[1]", "value": "2270 ng equivalents ^14C—F6H8/g"}, {"measurement": "Highest mean concentration, bulbar conjunctiva", "setting": "[1]", "value": "5450 ng equivalents ^14C—F6H8/g"}, {"measurement": "Highest mean concentration, cornea", "setting": "[1]", "value": "8230 ng equivalents ^14C—F6H8/g"}, {"measurement": "Highest mean concentration, main lacrimal gland", "setting": "[1]", "value": "4130 ng equivalents ^14C—F6H8/g"}, {"measurement": "Highest mean concentration, palpebral conjunctiva", "setting": "[1]", "value": "14200 ng equivalents ^14C—F6H8/g"}, {"measurement": "Highest mean concentration, tears", "setting": "[1]", "value": "2390000 ng equivalents ^14C—F6H8/g"}, {"measurement": "Mean concentration of radioactivity, Conjunctiva (bulbar)", "setting": "0.25 h post-dose", "value": "5450 ng Equivalents ^14C-F6H8/g"}, {"measurement": "Mean concentration of radioactivity, Conjunctiva (palpebral)", "setting": "0.25 h post-dose", "value": "14200 ng Equivalents ^14C-F6H8/g"}, {"measurement": "Mean concentration of radioactivity, Cornea", "setting": "0.25 h post-dose", "value": "2040 ng Equivalents ^14C-F6H8/g"}, {"measurement": "Mean concentration of radioactivity, Lacrimal gland (accessory)", "setting": "0.25 h post-dose", "value": "577 ng Equivalents ^14C-F6H8/g"}, {"measurement": "Mean concentration of radioactivity, Lacrimal gland (main)", "setting": "0.25 h post-dose", "value": "1670 ng Equivalents ^14C-F6H8/g"}, {"measurement": "Mean concentration of radioactivity, Meibomian glands", "setting": "0.25 h post-dose", "value": "294000 ng Equivalents ^14C-F6H8/g"}, {"measurement": "Mean concentration of radioactivity, Sclera (anterior)", "setting": "0.25 h post-dose", "value": "1140 ng Equivalents ^14C-F6H8/g"}, {"measurement": "Mean concentration of radioactivity, Tears", "setting": "0.25 h post-dose", "value": "2390000 ng Equivalents ^14C-F6H8/g"}, {"measurement": "Mean concentration of radioactivity, Conjunctiva (bulbar)", "setting": "0.5 h post-dose", "value": "3680 ng Equivalents ^14C-F6H8/g"}, {"measurement": "Mean concentration of radioactivity, Conjunctiva (palpebral)", "setting": "0.5 h post-dose", "value": "5180 ng Equivalents ^14C-F6H8/g"}, {"measurement": "Mean concentration of radioactivity, Cornea", "setting": "0.5 h post-dose", "value": "8230 ng Equivalents ^14C-F6H8/g"}, {"measurement": "Mean concentration of radioactivity, Lacrimal gland (accessory)", "setting": "0.5 h post-dose", "value": "0.00 ng Equivalents ^14C-F6H8/g"}, {"measurement": "Mean concentration of radioactivity, Lacrimal gland (main)", "setting": "0.5 h post-dose", "value": "2770 ng Equivalents ^14C-F6H8/g"}, {"measurement": "Mean concentration of radioactivity, Meibomian glands", "setting": "0.5 h post-dose", "value": "102000 ng Equivalents ^14C-F6H8/g"}, {"measurement": "Mean concentration of radioactivity, Sclera (anterior)", "setting": "0.5 h post-dose", "value": "2270 ng Equivalents ^14C-F6H8/g"}, {"measurement": "Mean concentration of radioactivity, Tears", "setting": "0.5 h post-dose", "value": "995000 ng Equivalents ^14C-F6H8/g"}, {"measurement": "Mean concentration of radioactivity, Conjunctiva (bulbar)", "setting": "1 h post-dose", "value": "3320 ng Equivalents ^14C-F6H8/g"}, {"measurement": "Mean concentration of radioactivity, Conjunctiva (palpebral)", "setting": "1 h post-dose", "value": "5700 ng Equivalents ^14C-F6H8/g"}, {"measurement": "Mean concentration of radioactivity, Cornea", "setting": "1 h post-dose", "value": "6110 ng Equivalents ^14C-F6H8/g"}, {"measurement": "Mean concentration of radioactivity, Lacrimal gland (accessory)", "setting": "1 h post-dose", "value": "255 ng Equivalents ^14C-F6H8/g"}, {"measurement": "Mean concentration of radioactivity, Lacrimal gland (main)", "setting": "1 h post-dose", "value": "641 ng Equivalents ^14C-F6H8/g"}, {"measurement": "Mean concentration of radioactivity, Meibomian glands", "setting": "1 h post-dose", "value": "57600 ng Equivalents ^14C-F6H8/g"}, {"measurement": "Mean concentration of radioactivity, Sclera (anterior)", "setting": "1 h post-dose", "value": "1300 ng Equivalents ^14C-F6H8/g"}, {"measurement": "Mean concentration of radioactivity, Tears", "setting": "1 h post-dose", "value": "444000 ng Equivalents ^14C-F6H8/g"}, {"measurement": "Mean concentration of radioactivity, Conjunctiva (bulbar)", "setting": "2 h post-dose", "value": "3050 ng Equivalents ^14C-F6H8/g"}, {"measurement": "Mean concentration of radioactivity, Conjunctiva (palpebral)", "setting": "2 h post-dose", "value": "4230 ng Equivalents ^14C-F6H8/g"}, {"measurement": "Mean concentration of radioactivity, Cornea", "setting": "2 h post-dose", "value": "3230 ng Equivalents ^14C-F6H8/g"}, {"measurement": "Mean concentration of radioactivity, Lacrimal gland (accessory)", "setting": "2 h post-dose", "value": "1450 ng Equivalents ^14C-F6H8/g"}, {"measurement": "Mean concentration of radioactivity, Lacrimal gland (main)", "setting": "2 h post-dose", "value": "1530 ng Equivalents ^14C-F6H8/g"}, {"measurement": "Mean concentration of radioactivity, Meibomian glands", "setting": "2 h post-dose", "value": "69200 ng Equivalents ^14C-F6H8/g"}, {"measurement": "Mean concentration of radioactivity, Sclera (anterior)", "setting": "2 h post-dose", "value": "767 ng Equivalents ^14C-F6H8/g"}, {"measurement": "Mean concentration of radioactivity, Tears", "setting": "2 h post-dose", "value": "700000 ng Equivalents ^14C-F6H8/g"}, {"measurement": "Mean concentration of radioactivity, Conjunctiva (bulbar)", "setting": "4 h post-dose", "value": "1610 ng Equivalents ^14C-F6H8/g"}, {"measurement": "Mean concentration of radioactivity, Conjunctiva (palpebral)", "setting": "4 h post-dose", "value": "2500 ng Equivalents ^14C-F6H8/g"}, {"measurement": "Mean concentration of radioactivity, Cornea", "setting": "4 h post-dose", "value": "4480 ng Equivalents ^14C-F6H8/g"}, {"measurement": "Mean concentration of radioactivity, Lacrimal gland (accessory)", "setting": "4 h post-dose", "value": "4280 ng Equivalents ^14C-F6H8/g"}, {"measurement": "Mean concentration of radioactivity, Lacrimal gland (main)", "setting": "4 h post-dose", "value": "4130 ng Equivalents ^14C-F6H8/g"}, {"measurement": "Mean concentration of radioactivity, Meibomian glands", "setting": "4 h post-dose", "value": "29100 ng Equivalents ^14C-F6H8/g"}, {"measurement": "Mean concentration of radioactivity, Sclera (anterior)", "setting": "4 h post-dose", "value": "1170 ng Equivalents ^14C-F6H8/g"}, {"measurement": "Mean concentration of radioactivity, Tears", "setting": "4 h post-dose", "value": "207000 ng Equivalents ^14C-F6H8/g"}, {"measurement": "Mean concentration of radioactivity, Conjunctiva (bulbar)", "setting": "8 h post-dose", "value": "1340 ng Equivalents ^14C-F6H8/g"}, {"measurement": "Mean concentration of radioactivity, Conjunctiva (palpebral)", "setting": "8 h post-dose", "value": "1790 ng Equivalents ^14C-F6H8/g"}, {"measurement": "Mean concentration of radioactivity, Cornea", "setting": "8 h post-dose", "value": "6080 ng Equivalents ^14C-F6H8/g"}, {"measurement": "Mean concentration of radioactivity, Lacrimal gland (accessory)", "setting": "8 h post-dose", "value": "2110 ng Equivalents ^14C-F6H8/g"}, {"measurement": "Mean concentration of radioactivity, Lacrimal gland (main)", "setting": "8 h post-dose", "value": "2120 ng Equivalents ^14C-F6H8/g"}, {"measurement": "Mean concentration of radioactivity, Meibomian glands", "setting": "8 h post-dose", "value": "21100 ng Equivalents ^14C-F6H8/g"}, {"measurement": "Mean concentration of radioactivity, Sclera (anterior)", "setting": "8 h post-dose", "value": "1330 ng Equivalents ^14C-F6H8/g"}, {"measurement": "Mean concentration of radioactivity, Tears", "setting": "8 h post-dose", "value": "6660 ng Equivalents ^14C-F6H8/g"}, {"measurement": "Mean concentration of radioactivity, Conjunctiva (bulbar)", "setting": "24 h post-dose", "value": "1090 ng Equivalents ^14C-F6H8/g"}, {"measurement": "Mean concentration of radioactivity, Conjunctiva (palpebral)", "setting": "24 h post-dose", "value": "2270 ng Equivalents ^14C-F6H8/g"}, {"measurement": "Mean concentration of radioactivity, Cornea", "setting": "24 h post-dose", "value": "2730 ng Equivalents ^14C-F6H8/g"}, {"measurement": "Mean concentration of radioactivity, Lacrimal gland (accessory)", "setting": "24 h post-dose", "value": "1500 ng Equivalents ^14C-F6H8/g"}, {"measurement": "Mean concentration of radioactivity, Lacrimal gland (main)", "setting": "24 h post-dose", "value": "1810 ng Equivalents ^14C-F6H8/g"}, {"measurement": "Mean concentration of radioactivity, Meibomian glands", "setting": "24 h post-dose", "value": "14700 ng Equivalents ^14C-F6H8/g"}, {"measurement": "Mean concentration of radioactivity, Sclera (anterior)", "setting": "24 h post-dose", "value": "611 ng Equivalents ^14C-F6H8/g"}, {"measurement": "Mean concentration of radioactivity, Tears", "setting": "24 h post-dose", "value": "1300 ng Equivalents ^14C-F6H8/g"}]}
